{"source": "patent US20250057930A1", "about": "“ANAPLASTIC LYMPHOMA KINASE (ALK) CANCER VACCINES AND METHODS OF USE THEREOF” (The Children's Medical Center Corporation, priority 2022, published 2025)", "key": {"H2-Dd expression": {"test_system": "H2-Dd expression", "experiment": "H2-Dd surface expression on MHC-I^low lung tumor escaper cell lines (flow cytometry)", "type": "cell-based, mouse", "settings": "H2-Dd-downregulated cell lines; ADU-S100 50 μM, 24 h", "method": "To uncover the mechanisms that would explain this resistance to treatment, ex vivo escaped tumors were isolated from each treatment group. […] To understand whether the observed H2-Dd downregulation was sufficient to impair tumor rejection, tumor cells with high H2-Dd isolated from untreated mice or tumor cells with low H2-Dd isolated from ALK vaccinated mice and treated with ICI were injected. Treatment with ICI induced rejection of tumors with high H2-Dd expression (FIGS. 6D-6E), consistent with previous experiments (FIG. 3E), but not of escaped tumors with low H2-Dd expression (FIGS. 6F-6G). Finally, it was asked whether H2-Dd expression could be restored by Stimulator of IFN genes (STING) signaling that can increase MHC-I expression in other models of lung cancer.\nAllophycocyanin (APC)-conjugates H-2D^d-[…] (SEQ ID NO: 22) Dextramer reagents were obtained from Immudex (Immudex, Denmark). […] After washing step, cells were ready to be acquired. When referred, also PD-1 (clone RMP1-30; BV421-PD-1, BD Pharmingen™, USA) expression was evaluated together with dextramer staining, being added together with FITC-CD8. H2-Dd MHC-I expression was measured on relapsed tumors after treatment. […] All cells were acquired in a BD Celesta flow cytometer (BD Bioscience, USA) and analyzed by using the FlowJo software (FlowJo LCC, USA). […]"}, "[1]": {"test_system": "hEML4-ALK Tg mice (ALK^+ lung tumors)", "experiment": "Lung tumor volume by MRI and survival in hEML4-ALK Tg mice", "settings": "crizotinib 40 mg/kg or lorlatinib 2 mg/kg, MRI", "source_text": "(§2) EML4-ALK transgenic (Tg) mice, which express the human EML4-ALK (E13;A20, human variant 1) driven by the SP-C promoter (henceforth referred as hEML4-ALK Tg mice), and BALB/c mice infected intratracheally with adenovirus carrying the CRISPR/Cas9 system to induce in vivo the Eml4-Alk rearrangement (E14;A20, mouse variant 1) (henceforth referred as Ad-EA mice). […] In these models, magnetic resonance imaging (MRI) (FIG. 1B) allowed precise cohort stratification and tumor follow-up.\nAnatomical T2-weighted coronal images were acquired with a respiratory-triggered multislice fast spin echo RARE sequence (TR=4 s, TE=4.5 ms, Rare Factor (RF)=16, FOV=30 mm^2, Matrix=256×256, slices=16-20, slice thickness=1 mm, 2 averages, providing an in-plane spatial resolution of 117 μm) with a 7T MRI (Bruker Advance III, Ettlingen, Germany) scanner equipped with a quadrature 1H coil. Animals were anesthetized by intraperitoneal injection of a combination of ROMPUN® (Bayer, 5 mg/kg) and ZOLETIL 100® (Laboratoires Virbac, 20 mg/kg); breathing was monitored during acquisition of the MR images with a respiratory sensor (SA Instruments, Inc.). Tumor volumes and numbers of masses calculations were performed by manual segmentation (slice by slice contouring) with ITK-SNAP software (www.itksnap.org). […]"}, "[2]": {"test_system": "mEml4-Alk cell line tumors", "experiment": "mEml4-Alk syngeneic tumors in BALB/c mice", "type": "in vivo", "settings": "mEml4-Alk cell lines in syngeneic BALB/c mice", "method": "(§1) “[…]” is disclosed as SEQ ID NO: 22. […] “[…]” is disclosed as SEQ ID NO: 22.\nTo determine whether these differences in anaplastic lymphoma kinase (ALK)-specific CD8^+ T-cell responses translated into a different anti-tumor activity, mice were treated with either flank or lung tumors with immune checkpoint inhibitors (ICIs). […] Tumor-free mice were then rechallenged to assess ALK-specific CD8^+ T-cell memory response. […] In contrast to flank tumors, ICI was ineffective against Eml4-Alk^[…]-1 (“[…]” disclosed as SEQ ID NO: 22) lung tumors as measured by overall survival (FIG. 3I), and lung tumor histology (FIG. 3J). Systemic ALK-specific CD8^+ T-cell response was analyzed in mice bearing flank or lung tumors. […] It was concluded that the robustness of the spontaneous ALK-specific CD8^+ T-cell response depended on tumor localization and determined the response to immune checkpoint inhibitors (ICIs).\nFor syngeneic subcutaneous tumor transplantation, a total of 1×10^6 immortalized mouse cells were subcutaneously inoculated into the right dorsal flanks of 8-12 week-old BALB/c mice in 100 μL of phosphate-buffered saline (PBS). […] Tumor volume was measured by caliper measurements every 3 days in a blinded fashion and calculated according to the following equation: H. W^2/2. […]"}, "[3]": {"test_system": "ALK-rearranged (ALK^+) NSCLC", "settings": "patients with resistance to earlier ALK TKIs; cited from earlier work"}, "mEml4-Alk cell lines": {"test_system": "mEml4-Alk cell lines", "experiment": "Cell viability assay (CellTiter-Glo) in mEml4-Alk cell lines", "type": "cell-based", "settings": "Mus musculus, mEml4-Alk^1, 72 h", "method": "as §1\nCell viability assay was performed in all immortalized mouse cell lines by using CellTiter-Glo (Promega, USA) according to the manufacturer's instructions. […] After 72 h, CellTiter-Glo reagent was added to each well and luminescence output data were taken by GloMax-Multi Detection System (Promega, USA). The correspondent IC50 value for each ALK inhibitor was calculated with GraphPad Prism 9 software (GraphPad, USA)."}, "[4]": {"test_system": "Ad-EA mice (mEml4-Alk rearranged lung tumor)", "experiment": "Lung tumor volume by MRI and survival in Ad-EA mice", "type": "in vivo, mouse", "source_text": "as §2\nAnatomical T2-weighted coronal images were acquired with a respiratory-triggered multislice fast spin echo RARE sequence (TR=4 s, TE=4.5 ms, Rare Factor (RF)=16, FOV=30 mm^2, Matrix=256×256, slices=16-20, slice thickness=1 mm, 2 averages, providing an in-plane spatial resolution of 117 μm) with a 7T MRI (Bruker Advance III, Ettlingen, Germany) scanner equipped with a quadrature 1H coil. Animals were anesthetized by intraperitoneal injection of a combination of ROMPUN® (Bayer, 5 mg/kg) and ZOLETIL 100® (Laboratoires Virbac, 20 mg/kg); breathing was monitored during acquisition of the MR images with a respiratory sensor (SA Instruments, Inc.). Tumor volumes and numbers of masses calculations were performed by manual segmentation (slice by slice contouring) with ITK-SNAP software (www.itksnap.org).\nSyngeneic mice models transplanted with tumor cells were treated intraperitoneally with 200 μg of anti-PD-1 and/or anti-CTLA-4 (clone 9D9, Bioxcell), on days 3, 6, and 9 post-tumor transplantation (3 injections/per mouse)."}}}
{"compound": "Nc1ncnc2c1ncn2[C@@H]1O[C@@H]2CO[P@](=O)(S)O[C@@H]3[C@H](O)[C@@H](CO[P@@](=O)(S)O[C@H]2[C@H]1O)O[C@H]3n1cnc2c(N)ncnc21", "note": "[ADU-S100, reference compound]", "values": [{"measurement": "H2-Dd expression", "setting": "H2-Dd expression", "value": "strongly upregulating H2-Dd expression"}]}
{"compound": "C[C@H]1Oc2cc(cnc2N)-c2c(nn(C)c2C#N)CN(C)C(=O)c2ccc(F)cc21", "note": "[lorlatinib]", "values": [{"measurement": "tumor response at the end of treatment", "setting": "[1]", "value": "almost complete regression of tumors"}, {"measurement": "tumor sensitivity in vivo", "setting": "[2]", "value": "marked sensitivity"}, {"measurement": "average disease control", "setting": "[3]", "value": 7, "unit": "months"}, {"measurement": "IC50", "setting": "mEml4-Alk cell lines", "value": 1.17, "unit": "nM"}, {"measurement": "tumor response at the end of treatment", "setting": "[4]; crizotinib 40 mg/kg or lorlatinib 2 mg/kg, MRI", "value": "almost complete regression of tumors"}, {"measurement": "tumor response by MRI, prolonged treatment", "setting": "[4]; lorlatinib up to 8 weeks, tumors relapsed upon suspension", "value": "complete remission by MRI"}]}
